The source of these data is ChEMBL document CHEMBL3856221, “Structural modifications of the serotonin 5-HT7 receptor agonist N-(4-cyanophenylmethyl)-4-(2-biphenyl)-1-piperazinehexanamide (LP-211) to improve in vitro microsomal stability: A case study” (Eur J Med Chem, 2016).

SMILES strings stand for the structures.

Series [1] addresses 5-hydroxytryptamine receptor 6 (Homo sapiens, UniProt P50406). Briefly: Displacement of [3H]-LSD from human 5-HT6 receptor expressed in HEK293 cell membranes after 1 hr by microbeta counting analysis. A general note: Displacement assays read how much labelled ligand stays bound in the presence of the test substance.
Series [2] is described as follows: Displacement of [3H]-prazosin from adrenergic alpha 1 receptor in pig brain cortical membranes after 50 mins by microbeta counting analysis. Format: ADME, cell membranes, Sus scrofa.
Series [3] in a line: Retention factor, logKw of compound in MeOH/0.01 M phosphate buffer at pH 7.4 by RP-HPLC method. Format: physicochemical.
The nature of series [4]: Stability in mouse liver microsomes assessed as oxidative metabolism by measuring drug recovery at 10 uM preincubated for 10 mins followed by NADPH addition measured after 30 mins by liquid chromatographic method. Format: ADME. The note with it: liver microsomes, read-out: Drug recovery. (Liver microsomes are vesicles of endoplasmic reticulum, rich in cytochrome P450 enzymes.)

The next series deals with D(2) dopamine receptor (Homo sapiens, UniProt P14416). Description: Displacement of [3H]raclopride from human dopamine D2L receptor expressed in HEK293 cell membranes after 1 hr by microbeta counting analysis. Format: cell-based.
The target of series [5] is 5-hydroxytryptamine receptor 7 (Homo sapiens, UniProt P34969). Description: Displacement of [3H]-5-CT from human 5-HT7b receptor expressed in HEK293 cell membranes after 1 hr by microbeta counting analysis.
Series [6] has as its target T1, 5-hydroxytryptamine receptor 1A (Homo sapiens, UniProt P08908).
T1 sequence (P08908 whole entry): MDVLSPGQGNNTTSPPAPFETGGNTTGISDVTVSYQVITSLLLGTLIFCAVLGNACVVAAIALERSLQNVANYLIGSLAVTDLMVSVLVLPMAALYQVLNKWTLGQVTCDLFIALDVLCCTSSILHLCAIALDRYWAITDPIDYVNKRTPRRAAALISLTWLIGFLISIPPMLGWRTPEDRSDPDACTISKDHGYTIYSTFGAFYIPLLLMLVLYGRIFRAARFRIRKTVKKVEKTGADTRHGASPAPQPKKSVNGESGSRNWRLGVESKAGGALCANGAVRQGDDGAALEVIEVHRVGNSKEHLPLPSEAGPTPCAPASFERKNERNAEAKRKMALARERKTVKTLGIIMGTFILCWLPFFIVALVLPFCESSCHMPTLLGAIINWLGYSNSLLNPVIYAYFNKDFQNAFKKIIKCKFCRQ
Briefly: Displacement of [3H]-8-OH-DPAT from human 5-HT1A receptor expressed in HEK293 cell membranes after 1 hr by microbeta counting analysis.

As usually defined, the Ki is a measure of affinity in units of concentration, obtained from inhibition or displacement.

Sequence of 5-hydroxytryptamine receptor 7 (P34969 whole entry): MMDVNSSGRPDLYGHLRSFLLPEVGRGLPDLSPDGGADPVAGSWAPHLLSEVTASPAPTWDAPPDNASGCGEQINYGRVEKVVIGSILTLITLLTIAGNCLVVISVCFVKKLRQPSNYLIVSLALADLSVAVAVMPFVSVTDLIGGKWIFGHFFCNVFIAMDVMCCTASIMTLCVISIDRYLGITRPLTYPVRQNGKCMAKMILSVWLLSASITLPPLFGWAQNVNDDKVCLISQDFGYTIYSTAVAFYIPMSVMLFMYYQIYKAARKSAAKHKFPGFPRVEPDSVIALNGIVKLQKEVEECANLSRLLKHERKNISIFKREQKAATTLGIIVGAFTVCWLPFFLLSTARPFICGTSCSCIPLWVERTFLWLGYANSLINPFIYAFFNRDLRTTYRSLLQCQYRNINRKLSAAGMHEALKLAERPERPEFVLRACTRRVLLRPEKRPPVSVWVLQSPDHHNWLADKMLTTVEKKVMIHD
Sequence of D(2) dopamine receptor (P14416 whole entry): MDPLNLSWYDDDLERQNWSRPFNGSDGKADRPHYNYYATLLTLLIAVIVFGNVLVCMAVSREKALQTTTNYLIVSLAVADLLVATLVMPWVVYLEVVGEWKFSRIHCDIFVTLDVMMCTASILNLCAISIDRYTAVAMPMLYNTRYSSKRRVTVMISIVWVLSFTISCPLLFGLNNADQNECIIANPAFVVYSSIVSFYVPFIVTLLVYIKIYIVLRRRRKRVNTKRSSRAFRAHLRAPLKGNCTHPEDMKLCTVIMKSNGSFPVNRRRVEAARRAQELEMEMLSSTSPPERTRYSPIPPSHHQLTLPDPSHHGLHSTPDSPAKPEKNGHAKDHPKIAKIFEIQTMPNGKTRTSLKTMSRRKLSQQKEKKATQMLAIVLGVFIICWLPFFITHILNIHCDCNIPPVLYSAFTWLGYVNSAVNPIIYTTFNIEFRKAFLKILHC
Sequence of 5-hydroxytryptamine receptor 6 (P50406 whole entry): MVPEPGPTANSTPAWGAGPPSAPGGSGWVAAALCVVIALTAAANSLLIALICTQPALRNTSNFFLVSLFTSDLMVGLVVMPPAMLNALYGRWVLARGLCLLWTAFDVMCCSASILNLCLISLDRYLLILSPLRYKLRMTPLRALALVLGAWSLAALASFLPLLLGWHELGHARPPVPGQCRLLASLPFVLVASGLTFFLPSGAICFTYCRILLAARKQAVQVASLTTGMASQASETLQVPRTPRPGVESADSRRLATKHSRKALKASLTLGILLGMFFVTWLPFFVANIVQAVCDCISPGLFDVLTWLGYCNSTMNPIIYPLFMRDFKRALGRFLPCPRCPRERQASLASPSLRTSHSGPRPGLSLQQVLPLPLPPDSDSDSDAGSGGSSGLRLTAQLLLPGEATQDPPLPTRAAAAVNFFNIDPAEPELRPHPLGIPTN

As for `C[C@H](NC(=O)CCCCCN1CCN(c2ccccc2-c2ccccc2)CC1)c1ccccc1`, the Ki was found to be 480 nM in series [1]; 46.4 nM in series [2]; 53 nM at D(2) dopamine receptor; 10 nM in series [5]; 66 nM in series [6]. Moreover, the logKw in series [3] turned out to be 0.75. Moreover, the remaining at 0.5 h, 10 µM in series [4] is 16%.
For the molecule `O=C(CCOCCN1CCN(c2ncccc2-c2ccccc2)CC1)NCc1ccc(C(F)(F)F)cc1`, the Ki in series [1] was determined as 1040 nM; in series [2], 1220 nM; in series [5], 52 nM; in series [6] it was 365 nM. Further, in series [3], the logKw is given as 0.48. The remaining at 0.5 h, 10 µM in series [4] is 1%.
`CS(=O)(=O)Oc1ccc(CNC(=O)CCCCCN2CCN(c3ccccc3-c3ccccc3)CC2)cc1`: the remaining at 0.5 h, 10 µM in series [4] was less than 3%.
With `COc1ccc(-c2ccccc2N2CCN(CCCCCC(=O)N[C@@H](C)c3ccccc3)CC2)cc1`, the inhibition constant (Ki) in series [1] turned out to be 652 nM; in series [2] it was 22.1 nM; at D(2) dopamine receptor, 177 nM; in series [5] it was 15.5 nM; in series [6], 103 nM. Further, the logKw in series [3] worked out at 0.71. In addition, in series [4], the remaining at 0.5 h, 10 µM worked out at 21%.
In series [3], `COc1ccc(-c2ccccc2N2CCN(CCCCCC(=O)NCc3ccccn3)CC2)cc1` returned a logKw of 0.47. Besides, the remaining at 0.5 h, 10 µM in series [4] was found to be 6%.
As to `O=C(CCOCCN1CCN(c2ccccc2-c2ccccc2)CC1)NCc1ccncc1`, the Ki came to 2520 nM in series [1]; 94 nM in series [2]; 2450 nM at D(2) dopamine receptor; 53 nM in series [5]; 1050 nM in series [6]. In series [3], this molecule had a logKw of 0.27. In addition, in series [4], the remaining at 0.5 h, 10 µM stood at 13%.
Turning to `N#Cc1ccc(CNC(=O)CCOCCN2CCN(c3cccnc3-c3ccccc3)CC2)cc1`, the Ki in series [1] came to 3440 nM; in series [2], 310 nM; in series [5], 87 nM; in series [6], 3840 nM. Further, the logKw in series [3] is given as -0.14. Moreover, the remaining at 0.5 h, 10 µM in series [4] stood at 2%.
Take `COc1ccc(-c2ccccc2N2CCN(CCCCCC(=O)NCc3ccc(OCCCN4CCOCC4)cc3)CC2)cc1`: the Ki amounted to 1620 nM in series [1]; 53 nM in series [2]; 260 nM on D(2) dopamine receptor; 18.5 nM in series [5]; 105 nM in series [6]. In series [3], this molecule had a logKw of 0.62. Further, the remaining at 0.5 h, 10 µM in series [4] was in the range of 3 to 3.3%.
`O=C(CCCCCN1CCN(c2ccccc2-c2ccccc2)CC1)NCc1ccccc1` displayed a logKw in series [3] of 0.68. In addition, the remaining at 0.5 h, 10 µM in series [4] was less than 3%.
As to `N#Cc1ccc(CNC(=O)CCOCCN2CCN(c3ncccc3-c3ccc(F)cc3)CC2)cc1`, the Ki in series [1] was 1620 nM; in series [2] it was 156 nM; in series [5] it was 54 nM; in series [6], 2630 nM. The molecule also displayed a logKw in series [3] of 0.15. Also, the remaining at 0.5 h, 10 µM in series [4] amounted to 1%.
For the molecule `O=C(CCOCCN1CCN(c2cccnc2-c2ccccc2)CC1)NCc1ccc(C(F)(F)F)cc1`, the Ki in series [1] is 2210 nM; in series [2] it was 471 nM; at D(2) dopamine receptor it was 2770 nM; in series [5] it was 44 nM; in series [6], 802 nM. The logKw in series [3] was found to be 0.16. For the same molecule, in series [4], the remaining at 0.5 h, 10 µM is 1%.
In series [3], `COc1ccc(-c2ccccc2N2CCN(CCOCCC(=O)NCc3ccncc3)CC2)cc1` showed a logKw of 0.25. Moreover, in series [4], the remaining at 0.5 h, 10 µM is 25%.
Regarding `C[C@H]1CN(c2ccccc2-c2ccccc2)CCN1CCCCCC(=O)NCc1ccccc1`, the Ki in series [1] worked out at 395 nM; in series [2], 42.6 nM; at D(2) dopamine receptor, 243 nM; in series [5], 36.5 nM; in series [6], 202 nM. Further, the logKw in series [3] worked out at 0.59. Moreover, the remaining at 0.5 h, 10 µM in series [4] stood at 5%.
On to `COc1ccc(-c2ccccc2N2CCN(CCCCCC(=O)NCc3cccnc3)CC2)cc1`, for which, in series [3], the logKw was found to be 0.38. For the same molecule, the remaining at 0.5 h, 10 µM in series [4] stood at 32%.
On to `O=C(CCCCCN1CCN(c2ccccc2-c2ccccc2)CC1)NCc1ccc(OCCO)cc1`, for which the results for the Ki in series [2] and in series [5] were 4.5 nM and 259 nM, respectively. For the same molecule, in series [4], the remaining at 0.5 h, 10 µM was found to be 10%.
Take `CN(C)Cc1ccc(CNC(=O)CCCCCN2CCN(c3ccccc3-c3ccccc3)CC2)cc1`: the Ki in series [1] stood at 1510 nM; in series [2], 23 nM; on D(2) dopamine receptor it was 75 nM; in series [5], 21 nM; in series [6], 74 nM. In series [3], the logKw worked out at 0.68. Moreover, the remaining at 0.5 h, 10 µM in series [4] was in the range of 3 to 5%.
For the molecule `C[C@@H](NC(=O)CCCCCN1CCN(c2ccccc2-c2ccccc2)CC1)c1ccccc1`, the Ki came to 561 nM in series [1]; 36.6 nM in series [2]; 116 nM at D(2) dopamine receptor; 10.5 nM in series [5]; 80 nM in series [6]. In series [3], this molecule had a logKw of 0.75. Besides, the remaining at 0.5 h, 10 µM in series [4] came out at 9%.
`C[C@@H]1CN(c2ccccc2-c2ccccc2)CCN1CCCCCC(=O)NCc1ccccc1`: the Ki in series [1] turned out to be 434 nM; in series [2], 11.6 nM; on D(2) dopamine receptor, 178 nM; in series [5], 14 nM; in series [6], 101 nM. In series [3], this molecule had a logKw of 0.58. In series [4], the remaining at 0.5 h, 10 µM was determined as 3%.
Consider `COc1ccc(-c2ccccc2N2CCN(CCCCCC(=O)N[C@H](C)c3ccccc3)CC2)cc1`, for which the Ki came to 721 nM in series [1]; 36 nM in series [2]; 295 nM at D(2) dopamine receptor; 11.5 nM in series [5]; 134 nM in series [6]. In series [3], this molecule showed a logKw of 0.71. The remaining at 0.5 h, 10 µM in series [4] lay within 0.7 to 3%.
With `COCOc1ccc(CNC(=O)CCCCCN2CCN(c3ccccc3-c3ccccc3)CC2)cc1`, the Ki in series [1] stood at 413 nM; in series [2] it was 20 nM; at D(2) dopamine receptor, 36 nM; in series [5], 4.5 nM; in series [6], 86 nM. Further, the logKw in series [3] stood at 0.44. For the same molecule, in series [4], the remaining at 0.5 h, 10 µM was found to be 5.4%.
In the case of `O=C(CCCCCN1CCN(c2ccccc2-c2ccccc2)CC1)NCc1ccc(OCCCN2CCOCC2)cc1`, the Ki is 1150 nM in series [1]; 12.3 nM in series [2]; 64 nM on D(2) dopamine receptor; 9.5 nM in series [5]; 149 nM in series [6]. The molecule also yielded a logKw in series [3] of 0.63. Moreover, the remaining at 0.5 h, 10 µM in series [4] was 3.3%.
Turning to `COCOc1ccc(CNC(=O)CCCCCN2CCN(c3ccccc3-c3ccc(OC)cc3)CC2)cc1`, the Ki in series [1] was found to be 640 nM; in series [2], 5.9 nM; at D(2) dopamine receptor it was 321 nM; in series [5], 6.5 nM; in series [6], 160 nM. Further, the logKw in series [3] amounted to 0.38. In series [4], the remaining at 0.5 h, 10 µM stood at 8.3%.
Consider `O=C(CCOCCN1CCN(c2ccccc2-c2ccccc2)CC1)NCc1ccc(C(F)(F)F)cc1`, for which the figures for the Ki (in series [1]; in series [2]; at D(2) dopamine receptor) were 830 nM, 245 nM and 345 nM, respectively. This molecule also registered a logKw in series [3] of 0.75. Besides, the remaining at 0.5 h, 10 µM in series [4] is 3%.
`COc1ccc(-c2ccccc2N2CCN(CCOCCC(=O)NCc3ccccn3)CC2)cc1` had a logKw in series [3] of 0.32. Moreover, in series [4], the remaining at 0.5 h, 10 µM is 19%.
Consider `N#Cc1ccc(CNC(=O)CCOCCN2CCN(c3cccnc3-c3ccc(F)cc3)CC2)cc1`, for which the Ki in series [1] was determined as 2810 nM; in series [2], 914 nM; at D(2) dopamine receptor, 1960 nM; in series [5] it was 108 nM; in series [6], 6630 nM. Further, the logKw in series [3] is on record as -0.09. Besides, the remaining at 0.5 h, 10 µM in series [4] turned out to be 9%.
As for `N#Cc1ccc(CNC(=O)CCOCCN2CCN(c3ncccc3-c3ccccc3)CC2)cc1`, the Ki in series [1] is 1630 nM; in series [5], 76 nM; in series [6] it was 595 nM. Moreover, the logKw in series [3] was found to be 0.11. The remaining at 0.5 h, 10 µM in series [4] was 1.6 to 3%.
As for `COc1ccc(-c2ccccc2N2CCN(CCCCCC(=O)NCc3ccncc3)CC2)cc1`, the logKw in series [3] is reported as 0.39. Moreover, the remaining at 0.5 h, 10 µM in series [4] came out at 35%.
Turning to `COc1ccc(-c2ccccc2N2CCN(CCCCCC(=O)NCc3ccc(OCCN4CCOCC4)cc3)CC2)cc1`, the Ki came out at 1710 nM in series [1]; 26 nM in series [2]; 375 nM on D(2) dopamine receptor; 25 nM in series [5]; 163 nM in series [6]. The molecule further came in with a logKw in series [3] of 0.57. Further, the remaining at 0.5 h, 10 µM in series [4] worked out at 15%.
Regarding `COc1ccc(-c2ccccc2N2CCN(CCOCCC(=O)NCc3cccnc3)CC2)cc1`, the logKw in series [3] is recorded as 0.23. In series [4], the remaining at 0.5 h, 10 µM was 23%.
On to `N#Cc1ccc(CNC(=O)CCOCCN2CCN(c3ccccc3-c3ccccc3)CC2)cc1`, for which the results for the Ki in series [1] and in series [2] were 148 nM and 9.3 nM, respectively. The same molecule came in with a logKw in series [3] of 0.41. In addition, in series [4], the remaining at 0.5 h, 10 µM amounted to 5%.
